# Target: T1, ABCG2 (breast cancer resistance protein, BCRP) (Homo sapiens, UniProt Q9UNQ0)
# T1 construct: wild-type ABCG2 (R482) in overexpressing cell membranes
# T1 sequence (Q9UNQ0 1-655): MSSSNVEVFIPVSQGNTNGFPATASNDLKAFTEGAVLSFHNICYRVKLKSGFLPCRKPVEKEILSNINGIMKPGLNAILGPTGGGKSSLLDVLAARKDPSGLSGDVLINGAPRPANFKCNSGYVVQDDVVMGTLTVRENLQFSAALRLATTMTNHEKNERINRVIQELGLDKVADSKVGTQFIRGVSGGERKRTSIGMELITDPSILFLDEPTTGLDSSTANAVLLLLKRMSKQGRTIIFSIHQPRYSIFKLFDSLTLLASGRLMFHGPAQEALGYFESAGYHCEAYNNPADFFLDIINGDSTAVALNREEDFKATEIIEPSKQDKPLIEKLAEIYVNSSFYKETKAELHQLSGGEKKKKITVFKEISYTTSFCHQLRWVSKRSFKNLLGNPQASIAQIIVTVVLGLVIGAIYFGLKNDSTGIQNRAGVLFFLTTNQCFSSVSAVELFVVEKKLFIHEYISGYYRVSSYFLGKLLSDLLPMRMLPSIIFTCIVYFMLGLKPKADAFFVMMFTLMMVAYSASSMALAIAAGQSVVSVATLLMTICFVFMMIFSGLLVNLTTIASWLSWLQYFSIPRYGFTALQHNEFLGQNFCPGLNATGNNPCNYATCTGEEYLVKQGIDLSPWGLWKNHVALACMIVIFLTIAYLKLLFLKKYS
# Test: vanadate-sensitive ATPase assay in ABCG2-overexpressing cell membranes; [3H]-mitoxantrone accumulation and efflux in cells
# Type: biochemical
compound,measurement,value
CC1(C)CCC(CN2CCN(c3ccc(C(=O)NS(=O)(=O)c4ccc(NCC5CCOCC5)c([N+](=O)[O-])c4)c(Oc4cnc5[nH]ccc5c4)c3)CC2)=C(c2ccc(Cl)cc2)C1 [venetoclax],IC50,4.78 µM
